Measurements: paper PMC9511441, “Semisynthetic teicoplanin derivatives with dual antimicrobial activity against SARS-CoV-2 and multiresistant bacteria” (Scientific Reports, 2022)
Converted amounts (≈) assume the structure as drawn. Read-outs that look alike come from different tables or passages of the source.

How the values were obtained:
VeroE6 cells = assay: Cytotoxicity in mock-infected VeroE6 cells (XTT); assay type: cell-based, African green monkey; settings: mock-infected Vero E6 cells, three days, XTT
HEL cells = assay: Cytotoxicity in mock-infected HEL cells (MTS); assay type: cell-based, human; settings: mock-infected HEL cells, MTS, mean of 2–3 tests
[1] = biological target: T1, human recombinant cathepsin L (Homo sapiens, UniProt P07711); assay: biochemical; assay type: biochemical; settings: read-out: Cathepsin L IC50; pH 5.5, Z-Phe-Arg-AMC substrate
T1 construct: made in house; host or cells: Escherichia coli

E. faecalis = assay: MIC, broth microdilution; assay type: cell-based; settings: Enterococcus faecalis
S. aureus = assay: MIC, broth microdilution; assay type: cell-based; settings: Staphylococcus aureus
S. haemolyticus = assay: MIC, broth microdilution; assay type: cell-based; settings: Staphylococcus haemolyticus
S.pyogenes = assay: MIC, broth microdilution; assay type: cell-based; settings: Streptococcus pyogenes
E. faecium = assay: microbe, parasite or virus in culture; assay type: cell-based; settings: Enterococcus faecium
S. epidermidis = assay: microbe, parasite or virus in culture; assay type: cell-based; settings: Staphylococcus epidermidis
HCoV-229E = settings: earlier work; read-out: EC50 against human coronavirus 229E (HCoV-229E); cited from earlier work
[2] = test system: a panel of bacteria including MRSA; design: method as in PMID 32652783; settings: earlier work; cited from earlier work

T1 sequence (P07711 114-333): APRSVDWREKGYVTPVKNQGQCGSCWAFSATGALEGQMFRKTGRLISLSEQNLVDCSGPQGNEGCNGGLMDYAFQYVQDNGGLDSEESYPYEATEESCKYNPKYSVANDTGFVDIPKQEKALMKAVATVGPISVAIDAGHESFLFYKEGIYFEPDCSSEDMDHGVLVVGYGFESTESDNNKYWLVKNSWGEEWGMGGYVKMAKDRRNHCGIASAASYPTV

Compound: CC(=O)N[C@H]1[C@H](O[C@@H]2c3ccc(c(Cl)c3)Oc3cc4cc(c3O)Oc3ccc(cc3Cl)C[C@H]3NC(=O)[C@H](n5cc(COCCOCCCC(F)(F)C(F)(F)C(F)(F)C(F)(F)F)nn5)c5ccc(O)c(c5)Oc5cc(O)cc(c5)[C@H](NC3=O)C(=O)N[C@H]4C(=O)N[C@H]3C(=O)N[C@@H]2C(=O)N[C@H](C(=O)O)c2cc(O)cc(O)c2-c2cc3ccc2O)O[C@H](CO)[C@@H](O)[C@@H]1O [Compound 2]
- CC50 (VeroE6 cells): > 100 µM
- CC50 (HEL cells): > 100 µM
- IC50 [1]: 98 ± 1 µM
- MIC (E. faecalis; read-out: Average MIC value, E. faecalis VAN^R,TEI^R/VanA, 1 strain): > 8 µg/mL
- MIC (E. faecalis; read-out: Average MIC value, E. faecalis VAN^S, TEI^S, 2 strains): 1 µg/mL (≈ 0.559 µM)
- MIC (E. faecalis; read-out: MIC value, E.faecalis JH2-2): 1 µg/mL (≈ 0.559 µM)
- MIC (E. faecalis; read-out: MIC value, E.faecalis OG1RF): 1 µg/mL (≈ 0.559 µM)
- MIC (E. faecalis; read-out: MIC value, E.faecalis V583, VAN,TEI/VanA): > 8 µg/mL
- MIC (S. aureus; ATCC 29213 / MSSA, read-out: MIC value, S. aureus ATCC29213, MSSA): 0.0625 µg/mL (≈ 0.0349 µM)
- MIC (S. aureus; MRSA / USA300, read-out: MIC value, S. aureus USA300, CA-MRSA): 0.25 µg/mL (≈ 0.14 µM)
- MIC (S. aureus; MRSA, read-out: Average MIC value, S. aureus CA-MRSA, 1 strain): 0.25 µg/mL (≈ 0.14 µM)
- MIC (S. aureus; MRSA, read-out: Average MIC value, S. aureus MRSA, 7 strains): 0.285 µg/mL (≈ 0.159 µM)
- MIC (S. aureus; MRSA, read-out: MIC value, S. aureus 73OL, MRSA): 0.25 µg/mL (≈ 0.14 µM)
- MIC (S. aureus; MRSA, read-out: MIC value, S. aureus 214OL, MRSA): 0.25 µg/mL (≈ 0.14 µM)
- MIC (S. aureus; MRSA, read-out: MIC value, S. aureus 1041OL, MRSA): 0.25 µg/mL (≈ 0.14 µM)
- MIC (S. aureus; MRSA, read-out: MIC value, S. aureus A6918, MRSA): 0.5 µg/mL (≈ 0.28 µM)
- MIC (S. aureus; MRSA, read-out: MIC value, S. aureus A6919, MRSA): 0.25 µg/mL (≈ 0.14 µM)
- MIC (S. aureus; MRSA, read-out: MIC value, S. aureus Mu50, MRSA): 0.25 µg/mL (≈ 0.14 µM)
- MIC (S. aureus; MRSA, read-out: MIC value, S. aureus N315, MRSA): 0.25 µg/mL (≈ 0.14 µM)
- MIC (S. aureus; MSSA / NEWMAN, read-out: MIC value, S. aureus Newman, MSSA): 0.5 µg/mL (≈ 0.28 µM)
- MIC (S. aureus; MSSA, read-out: Average MIC value, S. aureus MSSA, 4 strains): 0.265 µg/mL (≈ 0.148 µM)
- MIC (S. aureus; MSSA, read-out: MIC value, S. aureus MSSA476, MSSA): 0.25 µg/mL (≈ 0.14 µM)
- MIC (S. aureus; MSSA, read-out: MIC value, S. aureus SA564, MSSA): 0.25 µg/mL (≈ 0.14 µM)
- MIC (S. haemolyticus; S. haemolyticus mecA, 6 strains, read-out: Average MIC value): 1.9 µg/mL (≈ 1.06 µM)
- MIC (S. haemolyticus; S.haemolyticus DALB_R1, mecA, read-out: MIC value): 4 µg/mL (≈ 2.24 µM)
- MIC (S. haemolyticus; S.haemolyticus DALB_R2, mecA, read-out: MIC value): 2 µg/mL (≈ 1.12 µM)
- MIC (S. haemolyticus; S.haemolyticus DALB_R3, mecA, read-out: MIC value): 2 µg/mL (≈ 1.12 µM)
- MIC (S. haemolyticus; S.haemolyticus DALB_R4, mecA, read-out: MIC value): 2 µg/mL (≈ 1.12 µM)
- MIC (S. haemolyticus; S.haemolyticus DALB_R5, mecA, read-out: MIC value): 0.5 µg/mL (≈ 0.28 µM)
- MIC (S. haemolyticus; S.haemolyticus ORI_R1, mecA, read-out: MIC value): 1 µg/mL (≈ 0.559 µM)
- MIC (S.pyogenes; read-out: MIC value, S.pyogenes H232): 0.0625 µg/mL (≈ 0.0349 µM)
- MIC (S.pyogenes; read-out: MIC value, S.pyogenes H550): 0.0625 µg/mL (≈ 0.0349 µM)
- MIC (S.pyogenes; read-out: MIC value, S.pyogenes H578): 0.0625 µg/mL (≈ 0.0349 µM)
- MIC (E. faecium; read-out: Average MIC value, E. faecium VAN^R,TEI^R/VanA, 8 strains): > 8 µg/mL
- MIC (E. faecium; read-out: Average MIC value, E. faecium VAN^S, TEI^S, 1 strain): 1 µg/mL (≈ 0.559 µM)
- MIC (E. faecium; read-out: MIC value, E.faecium E335, VAN,TEI,LNZ/VanA): > 8 µg/mL
- MIC (E. faecium; read-out: MIC value, E.faecium E355, VAN,TEI,LNZ/VanA): > 8 µg/mL
- MIC (E. faecium; read-out: MIC value, E.faecium E832, VAN,TEI,LNZ/VanA): > 8 µg/mL
- MIC (E. faecium; read-out: MIC value, E.faecium E854, VAN,TEI,LNZ/VanA): > 8 µg/mL
- MIC (E. faecium; read-out: MIC value, E.faecium E859, VAN,TEI,LNZ/VanA): > 8 µg/mL
- MIC (E. faecium; read-out: MIC value, E.faecium E1114, VAN,TEI,LNZ/VanA): > 8 µg/mL
- MIC (E. faecium; read-out: MIC value, E.faecium E1131, VAN,TEI,LNZ/VanA): > 8 µg/mL
- MIC (E. faecium; read-out: MIC value, E.faecium E1132, VAN,TEI,LNZ/VanA): > 8 µg/mL
- MIC (E. faecium; read-out: MIC value, E.faecium TX0016): 1 µg/mL (≈ 0.559 µM)
- MIC (S. epidermidis; read-out: Average MIC value, S. epidermidis mecA, 6 strains): 0.645 µg/mL (≈ 0.361 µM)
- MIC (S. epidermidis; read-out: MIC value, S.epidermidis ORI_R1, mecA): 0.5 µg/mL (≈ 0.28 µM)
- MIC (S. epidermidis; read-out: MIC value, S.epidermidis ORI_R2, mecA): 0.5 µg/mL (≈ 0.28 µM)
- MIC (S. epidermidis; read-out: MIC value, S.epidermidis ORI_R3, mecA): 0.25 µg/mL (≈ 0.14 µM)
- MIC (S. epidermidis; read-out: MIC value, S.epidermidis ORI_R4, mecA): 0.5 µg/mL (≈ 0.28 µM)
- MIC (S. epidermidis; read-out: MIC value, S.epidermidis TEI_R1, mecA): 0.125 µg/mL (≈ 0.0699 µM)
- MIC (S. epidermidis; read-out: MIC value, S.epidermidis TEI_R2, mecA): 2 µg/mL (≈ 1.12 µM)
- EC50 (HCoV-229E): > 100 µM
- MIC against a panel of bacteria including MRSA [2]: 0.5 to 1 µM
